ChEMBL document CHEMBL1201862, “PubChem BioAssay data set” (2004)
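The compound was tested at five concentrations on cells cultured in 96-well plates, with a 48-hour exposure period. GI50 = concentration required for 50% inhibition of growth.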 Activity calls are given as the source filed them. No stated cut-off is given here; in the data, active = GI50 up to about 1.1 µM and inactive = higher.

What was measured:
Assay in all cases: NCI tumour cell line growth inhibition, 48 h
[1] = system: SF-295
[2] = system: SF-268
[3] = system: SF-539
[4] = system: SK-MEL-5
[5] = system: UACC-257
[6] = system: MOLT-4
[7] = system: NCI-H522
[8] = system: LOX IMVI
[9] = system: CCRF-CEM
[10] = system: NCI-H460
[11] = system: RXF 393
[12] = system: SN12C
[13] = system: SK-MEL-28
[14] = system: KM-20L2
[15] = system: IGROV-1
[16] = system: A498
[17] = system: HOP-18
[18] = system: HT-29
[19] = system: SW-620
[20] = system: RPMI-8226
[21] = system: KM12
[22] = system: M14
[23] = system: DMS-273
[24] = system: SNB-19
[25] = system: LXFL 529
[26] = system: SR
[27] = system: COLO 205
[28] = system: 786-0
[29] = system: SNB-78
[30] = system: NCI-H23
[31] = system: EKVX
[32] = system: HCT-15
[33] = system: OVCAR-3
[34] = system: U-251
[35] = system: UO-31
[36] = system: HCT-116
[37] = system: UACC-62
[38] = system: HL-60
[39] = system: DLD-1
[40] = system: M19-MEL
[41] = system: SK-MEL-2
[42] = system: HOP-92
[43] = system: TK-10
[44] = system: Malme-3M
[45] = system: NCI-H226
[46] = system: HOP-62
[47] = system: SK-OV-3
[48] = system: CAKI-1
[49] = system: OVCAR-8
[50] = system: OVCAR-5
[51] = system: HCC 2998
[52] = system: DMS-114
[53] = system: A549
[54] = system: K562
[55] = system: ACHN
[56] = system: OVCAR-4
[57] = system: SNB-75

Structure (SMILES): COC(=O)/C(=C/c1ccc(OC)cc1)C(C(=O)O)=C(C)C
- GI50 [1]: > 100 µM (inactive)
- GI50 [2]: > 100 µM (inactive)
- GI50 [3]: > 100 µM (inactive)
- GI50 [4]: > 100 µM (inactive)
- GI50 [5]: > 100 µM (inactive)
- GI50 [6]: > 100 µM (inactive)
- GI50 [7]: > 100 µM (inactive)
- GI50 [8]: > 100 µM (inactive)
- GI50 [9]: > 100 µM (inactive)
- GI50 [10]: > 100 µM (inactive)
- GI50 [11]: > 100 µM (inactive)
- GI50 [12]: > 100 µM (inactive)
- GI50 [13]: > 100 µM (inactive)
- GI50 [14]: > 100 µM (inactive)
- GI50 [15]: > 100 µM (inactive)
- GI50 [16]: > 100 µM (inactive)
- GI50 [17]: > 100 µM (inactive)
- GI50 [18]: > 100 µM (inactive)
- GI50 [19]: > 100 µM (inactive)
- GI50 [20]: > 100 µM (inactive)
- GI50 [21]: > 100 µM (inactive)
- GI50 [22]: > 100 µM (inactive)
- GI50 [23]: > 100 µM (inactive)
- GI50 [24]: > 100 µM (inactive)
- GI50 [25]: > 100 µM (inactive)
- GI50 [26]: > 100 µM (inactive)
- GI50 [27]: > 100 µM (inactive)
- GI50 [28]: > 100 µM (inactive)
- GI50 [29]: > 100 µM (inactive)
- GI50 [30]: > 100 µM (inactive)
- GI50 [31]: > 100 µM (inactive)
- GI50 [32]: > 100 µM
- GI50 [33]: > 100 µM (inactive)
- GI50 [34]: > 100 µM (inactive)
- GI50 [35]: > 100 µM (inactive)
- GI50 [36]: > 100 µM (inactive)
- GI50 [37]: > 100 µM (inactive)
- GI50 [38]: > 100 µM (inactive)
- GI50 [39]: > 100 µM (inactive)
- GI50 [40]: > 100 µM (inactive)
- GI50 [41]: > 100 µM (inactive)
- GI50 [42]: > 100 µM (inactive)
- GI50 [43]: > 100 µM (inactive)
- GI50 [44]: > 100 µM (inactive)
- GI50 [45]: > 100 µM (inactive)
- GI50 [46]: > 100 µM (inactive)
- GI50 [47]: > 100 µM (inactive)
- GI50 [48]: > 100 µM (inactive)
- GI50 [49]: > 100 µM (inactive)
- GI50 [50]: > 100 µM (inactive)
- GI50 [51]: > 100 µM (inactive)
- GI50 [52]: > 100 µM (inactive)
- GI50 [53]: > 100 µM (inactive)
- GI50 [54]: > 100 µM (inactive)

Structure (SMILES): COC(=O)CSc1nnc(-c2ccccc2)[nH]1
- GI50 [1]: > 100 µM (inactive)
- GI50 [2]: > 100 µM (inactive)
- GI50 [3]: > 100 µM (inactive)
- GI50 [4]: > 100 µM (inactive)
- GI50 [5]: > 100 µM (inactive)
- GI50 [6]: 16.4 µM (inactive)
- GI50 [7]: > 100 µM (inactive)
- GI50 [9]: > 100 µM (inactive)
- GI50 [10]: > 100 µM (inactive)
- GI50 [12]: > 100 µM (inactive)
- GI50 [13]: > 100 µM (inactive)
- GI50 [14]: > 100 µM (inactive)
- GI50 [15]: > 100 µM (inactive)
- GI50 [16]: > 100 µM (inactive)
- GI50 [17]: > 100 µM (inactive)
- GI50 [55]: > 100 µM (inactive)
- GI50 [18]: > 100 µM (inactive)
- GI50 [19]: > 100 µM (inactive)
- GI50 [20]: > 100 µM (inactive)
- GI50 [21]: > 100 µM (inactive)
- GI50 [22]: > 100 µM (inactive)
- GI50 [23]: > 100 µM (inactive)
- GI50 [24]: > 100 µM (inactive)
- GI50 [25]: > 100 µM (inactive)
- GI50 [26]: 3.7 µM (inactive)
- GI50 [27]: > 100 µM (inactive)
- GI50 [28]: > 100 µM (inactive)
- GI50 [29]: > 100 µM (inactive)
- GI50 [30]: > 100 µM (inactive)
- GI50 [31]: > 100 µM (inactive)
- GI50 [32]: > 100 µM
- GI50 [33]: > 100 µM (inactive)
- GI50 [34]: > 100 µM (inactive)
- GI50 [35]: > 100 µM (inactive)
- GI50 [36]: > 100 µM (inactive)
- GI50 [37]: > 100 µM (inactive)
- GI50 [38]: > 100 µM (inactive)
- GI50 [39]: > 100 µM (inactive)
- GI50 [40]: > 100 µM (inactive)
- GI50 [41]: > 100 µM (inactive)
- GI50 [56]: > 100 µM (inactive)
- GI50 [42]: > 100 µM (inactive)
- GI50 [43]: > 100 µM (inactive)
- GI50 [44]: > 100 µM (inactive)
- GI50 [45]: > 100 µM (inactive)
- GI50 [46]: > 100 µM (inactive)
- GI50 [47]: > 100 µM (inactive)
- GI50 [48]: > 100 µM (inactive)
- GI50 [49]: > 100 µM (inactive)
- GI50 [50]: > 100 µM (inactive)
- GI50 [57]: 40.5 µM (inactive)
- GI50 [52]: > 100 µM (inactive)
- GI50 [53]: > 100 µM (inactive)
- GI50 [54]: > 100 µM (inactive)
